Measured values as given in article PMC8327648 (Acta Pharmaceutica Sinica. B, 2021).

Experiments:
proteinase K = proteinase K (Parengyodontium album, UniProt P06873); details: n = 3
SARS-CoV-2 PsV = details: 12 h
[1] = system: SARS-CoV-2 S protein-mediated cell–cell fusion; details: 2 h
trypsin = details: n = 3
authentic HCoV-OC43 = details: 36 h
authentic SARS-CoV-2 = details: 48 h
pseudotyped HCoV-NL63 = details: 12 h

Chain of proteinase K (P06873 106-384): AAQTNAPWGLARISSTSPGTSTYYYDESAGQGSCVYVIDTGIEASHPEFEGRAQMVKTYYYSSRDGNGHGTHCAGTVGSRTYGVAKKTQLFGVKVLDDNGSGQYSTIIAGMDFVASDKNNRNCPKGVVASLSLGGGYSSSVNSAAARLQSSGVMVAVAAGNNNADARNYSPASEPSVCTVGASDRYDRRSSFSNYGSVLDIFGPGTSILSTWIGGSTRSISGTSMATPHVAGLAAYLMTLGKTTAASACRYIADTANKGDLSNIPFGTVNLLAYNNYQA

CC[C@H](C)[C@H](NC(=O)[C@H](C)NC(=O)[C@H](CCC(=O)O)NC(=O)[C@H](CCC(=O)O)NC(=O)[C@H](CC(C)C)NC(=O)[C@H](CCCCN)NC(=O)[C@H](CCCCN)NC(=O)[C@H](CCSC)NC(=O)[C@H](CCC(=O)O)NC(=O)[C@H](Cc1ccc(O)cc1)NC(=O)[C@H](CCC(=O)O)NC(=O)[C@H](CC(C)C)NC(=O)[C@H](CC(=O)O)NC(=O)[C@H](CC(C)C)NC(=O)[C@H](Cc1ccccc1)NC(=O)[C@@H](NC(=O)[C@@H](NC(=O)[C@H](CC(N)=O)NC(=O)[C@@H](NC(=O)[C@H](CCC(N)=O)NC(=O)[C@H](CC(=O)O)NC(=O)[C@H](CC(C)C)NC(=O)[C@@H](N)CO)[C@@H](C)CC)C(C)C)[C@@H](C)O)C(=O)N[C@@H](CCCCN)C(=O)N[C@@H](CCCCN)C(=O)N[C@@H](CC(C)C)C(=O)N[C@@H](CCC(=O)O)C(=O)N[C@@H](CCC(=O)O)C(=O)N[C@@H](CO)C(=O)N[C@@H](Cc1ccc(O)cc1)C(=O)N[C@H](C(=O)N[C@@H](CC(=O)O)C(=O)N[C@@H](CC(C)C)C(=O)N[C@@H](CCCCN)C(=O)N[C@@H](CCC(=O)O)C(=O)N[C@@H](CC(C)C)C(=O)NCC(=O)N[C@@H](CO)C(=O)NCC(=O)N[C@@H](CO)C(=O)NCC(=O)NCCOCCOCCOCCOCCC(=O)N[C@@H](CSCC(=O)O[C@H]1CC[C@@]2(C)C(=CC[C@H]3[C@@H]4CC[C@H]([C@H](C)CCCC(C)C)[C@@]4(C)CC[C@@H]32)C1)C(N)=O)[C@@H](C)CC [EK1C4]
sensitivity to proteinase K (residual inhibitory activity over time) (proteinase K): gradually decreased more significantly | IC50 (SARS-CoV-2 PsV): 7 to 27 nM | IC50 [1]: 3 nM | sensitivity to trypsin (residual inhibitory activity over time) (trypsin): gradually decreased more significantly

CC[C@H](C)[C@H](NC(=O)[C@H](C)NC(=O)[C@H](CCC(=O)O)NC(=O)[C@H](CCC(=O)O)NC(=O)[C@H](CC(C)C)NC(=O)[C@H](CCCCN)NC(=O)[C@H](CCCCN)NC(=O)[C@H](CCSC)NC(=O)[C@H](CCC(=O)O)NC(=O)[C@H](Cc1ccc(O)cc1)NC(=O)[C@H](CCC(=O)O)NC(=O)[C@H](CC(C)C)NC(=O)[C@H](CC(=O)O)NC(=O)[C@H](CC(C)C)NC(=O)[C@H](Cc1ccccc1)NC(=O)[C@@H](NC(=O)[C@@H](NC(=O)[C@H](CC(N)=O)NC(=O)[C@@H](NC(=O)[C@H](CCC(N)=O)NC(=O)[C@H](CC(=O)O)NC(=O)[C@H](CC(C)C)NC(=O)[C@@H](N)CO)[C@@H](C)CC)C(C)C)[C@@H](C)O)C(=O)N[C@@H](CCCCN)C(=O)N[C@@H](CCCCN)C(=O)N[C@@H](CC(C)C)C(=O)N[C@@H](CCC(=O)O)C(=O)N[C@@H](CCC(=O)O)C(=O)N[C@@H](CO)C(=O)N[C@@H](Cc1ccc(O)cc1)C(=O)N[C@H](C(=O)N[C@@H](CC(=O)O)C(=O)N[C@@H](CC(C)C)C(=O)N[C@@H](CCCCN)C(=O)N[C@@H](CCC(=O)O)C(=O)N[C@@H](CC(C)C)C(N)=O)[C@@H](C)CC [EK1]
IC50 (authentic HCoV-OC43): 2430 nM | IC50 (authentic SARS-CoV-2): 71 nM | IC50 (pseudotyped HCoV-NL63): 1340 nM | IC50 [1]: 320 nM
